According to EP0135657B1, “Antibacterial drugs and/or feed concentrates” (priority 1983, dated 1985):

Assays:
[1] = test system: Bordatella bronchiseptica; assay: Minimum inhibitory concentration in vitro in broth containing phenol red and glucose (Difco); type: cell-based; settings: for Mindesthemmkonzentration durch Chlorchinaldol in Kombination verringert auf: fraction of the MIC of the substance alone, stated for the bacteria used, for Bordatella bronchiseptica as 1 order of magnitude; for Werte der Mindesthemmkonzentration [MIC-Werte] in mg/l in Bezug auf die Bakterienstämme Bordatella bronchiseptica: single substance, inhibits bacterial growth for 24 hours
From the text: (§1) Diese Feststellung wird durch die folgenden Versuchsergebnisse bestätigt. Die Mindesthemmkoncentrationen von Kombinationen von 2 bis 4 der obigen Verbindungen in erfindungsgemäßen Arzneimitteln beziehungsweise der einzelnen obigen Verbindungen als vergleichssubstanzen wurden in vitro gegen die Bakterienstämme Bordatella bronchiseptica und Pasteurella multocid in einer Phenolrot und Glucose enthaltenden Brühe [Hersteller: Firma Difco] bestimmt. In der folgenden Tabelle sind die Werte der Mindesthemmkonzentration [MIC-Werte] in mg/I, die den Bakterienzuwachs 24. Stunden lang hemmen, zusammengestellt.
(§2) Die Werte der Mindesthemmkonzentration [MIC-Werte] bei den Kombinationen bedeuten, daß die angegebenen Wirkstoffe gemeinsam in den angegebenen Konzentrationen das Wachstum der beiden verschiedenen Bakterienstämme bereits hemmen.

Pasteurella multocida = assay: as above; type: cell-based; settings: single substance; inhibits bacterial growth for 24 hours
From the text: as §1, §2

[2] = test system: Bordatella bronchiseptica; settings: relatively high doses needed; J. Am. Vet. Med. Assoc., 6 [1979], 597-600; cited from earlier work
Schnupfen = assay: Efficacy against Schnupfen in in vivo investigations; settings: Chlorchinaldol alone; therapeutically effective dose not reached in vivo
From the text: (§3) Obwohl jeder der obigen Wirkstoffe eine antibakterielle Wirkung hat, sind verhältnismäßig hohe Dosen von 2-[Methoxycarbonylhydrazono)-methylen]-chinoxalin-1,4-dioxyd {Carbadox®} und 2,4-Diamino-5-[3',4',5'-tri-(methoxy)-benzyl] pyrimidin {Trimethoprim} bei alleiniger Verwendung derselben erforderlich. Was 2-(Methyl)-5,7-di-(chlor)-8-(hydroxy)-chinolin {Chlorchinaldol} betrifft, ist dieses eine bekannte Verbindung mit einer milden baktericiden und fungiciden Wirkung. Sie wird in erster Linie für dermatologische Zwecke, zur Behandlung von Hautinfektionen, verwendet. Obwohl bei 2-(Methyl)-5,7-di-(chlor)-8-(hydroxy)-chinolin (Chlorchinaldol) der in vitro bestimmte Wert der Mindesthemmkonzentration sehr niedrig ist, weshalb eine hohe Wirksamkeit zu erwarten wäre, ist es an sich zum Beispiel gegen Schnupfen unwirksam, wobei bei Untersuchungen in vivo die therapeutisch wirksame Dosis nicht erreicht wurde. 2-(Methyl)-5,7-di-(chlor)-8-(hydroxy)-chinolin (Chlorchinaldol) wird sehr schlecht absorbiert, weshalb im Blutplasma eine Konzentration von höchstens […] erreicht wird. Zur therapeutischen Wirkung wird jedoch eine wesentlich höhere Konzentration, nämlich etwa 15 bis […], gebraucht. Mit 2-(Methyl)-5,7-di-(chlor)-8-(hydroxy)-chinolin {Chlorchinaldol} allein wird also die zur Therapie erforderliche Konzentration im Plasma nicht erreicht. […]

[3] = Blood plasma concentration reached in in vivo investigations; settings: Chlorchinaldol alone, very poorly absorbed, therapeutic effect said to need about 15 bis 20 p/ml, read-out: Konzentration im Blutplasma
From the text: as §3

SMILES	Mindesthemmkonzentration durch Chlorchinaldol in Kombination verringert auf [1]	Werte der Mindesthemmkonzentration [MIC-Werte] in mg/l in Bezug auf die Bakterienstämme Bordatella bronchiseptica [1]	Werte der Mindesthemmkonzentration [MIC-Werte] in mg/l in Bezug auf die Bakterienstämme Pasteurella multocida (Pasteurella multocida)	Ergebnisse der Behandlung mit Bordatella bronchiseptica infizierter Tiere [2]	Wirksamkeit gegen Schnupfen (Schnupfen)	Cmax [3] [ng/mL]
COc1cc(Cc2cnc(N)nc2N)cc(OC)c1OC [Trimethoprim, 2,4-Diamino-5-[3',4',5'-tri-(me-thoxy)-benzyl]-pyrimidin]	1/10	50 mg/L	50 mg/L			
COC(=O)NN=Cc1c[n+]([O-])c2ccccc2[n+]1[O-] [Carbadox®, 2-[(Methoxycarbonylhydrazono)-methylen]-chinoxalin-1,4-dioxyd]	1/10	50 mg/L	10 mg/L	verhältnismäßig günstige Ergebnisse		
CN(C)[C@@H]1C(O)=C(C(N)=O)C(=O)[C@@]2(O)C(O)=C3C(=O)c4c(O)cccc4[C@@](C)(O)[C@H]3[C@H](O)[C@@H]12 [Oxytetracyclin, 4-Dimethylamino-3,5,6,10,12,12a-hexahydroxy-6-methyl-1,11-dioxo-1,4,4a,5,5a,6,11,12a-octahydro-naphthacen-2-carbonsäureamid]	1/10	5 mg/L	5 mg/L			
Cc1ccc2c(Cl)cc(Cl)c(O)c2n1 [Chlorchinaldol, 2-(Methyl)-5,7-di-(chlor)-8-(hydroxy)-chinolin]		0,5 mg/l	0,5 mg/l		unwirksam	≤ 5000
